According to ChEMBL document CHEMBL1150839, “Dihydroagarofuran sesquiterpene alkaloids from Maytenus putterlickoides” (J Nat Prod, 2001):
Calls of active or inactive are those of the source. No cut-off for these calls is given here.

Assays:
[1] = Inhibition of PKC
Artemia = experiment: Toxicity in brine shrimp; format: organism-based; conditions: in vivo

inhibition [1] | Compound | Activity (Artemia)
inactive | CC(=O)OC[C@]12[C@H](O)[C@H](OC(=O)c3cccnc3)[C@@H]3[C@@H](OC(C)=O)[C@@]14O[C@@]3(C)COC(=O)c1cccnc1[C@@H](C)[C@H](C)C(=O)O[C@@H]([C@H](OC(C)=O)[C@@H]2OC(C)=O)[C@]4(C)O [PUTTERINE A] | Toxic
inactive | CC(=O)OC[C@]12[C@H](O)[C@H](OC(=O)c3cccnc3)[C@@H]3[C@@H](OC(C)=O)[C@@]14O[C@@]3(C)COC(=O)c1cccnc1[C@@H](C)[C@H](C)C(=O)O[C@@H]([C@H](OC(=O)C(C)C)[C@@H]2OC(C)=O)[C@]4(C)O [PUTTERINE B] | Toxic
